Source: patent US5213797A, “A80407 antibiotics” (Eli Lilly and Company, priority 1990, dated 1993)

System: Kibdelosporangium philippinensis (cultures A80407 and A80407.4)
Experiment: Resistance to antibiotics of the producing cultures, antibiotic sensitivity discs on seeded ISP No. 2 agar
Details: both cultures

With gentamycin the Resistance to antibiotics (10 μg) was “sensitive”.

NC[C@H]1O[C@H](O[C@H]2[C@H](O)[C@@H](O[C@H]3O[C@H](CO)[C@@H](O)[C@H](N)[C@H]3O)[C@H](N)C[C@@H]2N)[C@H](N)C[C@@H]1O [tobramycin] was tested, and the Resistance to antibiotics (10 μg) was “resistant”.

In the case of CCC[C@@H]1C[C@@H](C(=O)N[C@@H]([C@H]2O[C@H](SC)[C@H](O)[C@@H](O)[C@H]2O)[C@@H](C)O)N(C)C1 [lincomycin], the Resistance to antibiotics (2 μg) is reported as “resistant”.

For polymixin B, the Resistance to antibiotics (300 units) was “resistant”.

With CN(C)C1C(=O)C(C(N)=O)=C(O)C2(O)C(=O)C3=C(O)c4c(O)cccc4C(C)(O)C3CC12 (stereo not drawn) [tetracycline] the Resistance to antibiotics (10 μg) was “sensitive”.

For C1N2CN3CN1CN(C2)C3 [mandelamine], the Resistance to antibiotics (3 μg) was “sensitive”.

For CC(=O)OCC1=C(C(=O)O)N2C(=O)[C@@H](NC(=O)Cc3cccs3)[C@H]2SC1 [cephalothin], the Resistance to antibiotics (30 μg) was “resistant”.

In the case of NC[C@@H]1O[C@H](O[C@H]2[C@@H](O)[C@H](O[C@@H]3[C@@H](O)[C@H](N)C[C@H](N)[C@H]3O[C@H]3O[C@H](CN)[C@@H](O)[C@H](O)[C@H]3N)O[C@@H]2CO)[C@H](N)[C@@H](O)[C@@H]1O [neomycin], the Resistance to antibiotics (30 μg) is reported as “sensitive”.

O=C(N[C@H](CO)[C@H](O)c1ccc([N+](=O)[O-])cc1)C(Cl)Cl [chloramphenicol] was tested, and the Resistance to antibiotics (30 μg) was “sensitive”.

For CC1(C)S[C@@H]2[C@H](NC(=O)Cc3ccccc3)C(=O)N2[C@H]1C(=O)O [penicillin G], the Resistance to antibiotics (10 units) was “resistant”.

With COc1cc(Cc2cnc(N)nc2N)cc(OC)c1OC [trimethoprim] the Resistance to antibiotics (5 μg) was “resistant”.

CO[C@H]1/C=C/O[C@@]2(C)Oc3c(C)c(O)c4c(O)c(c(/C=N/N5CCN(C)CC5)c(O)c4c3C2=O)NC(=O)/C(C)=C\C=C\[C@H](C)[C@H](O)[C@@H](C)[C@@H](O)[C@@H](C)[C@H](OC(C)=O)[C@@H]1C [rifampin] was tested, and the Resistance to antibiotics (5 μg) was “sensitive”.

For oleandomycin, the Resistance to antibiotics (15 μg) was “resistant”.

CC[C@H]1OC(=O)[C@H](C)[C@@H](O[C@H]2C[C@@](C)(OC)[C@@H](O)[C@H](C)O2)[C@H](C)[C@@H](O[C@@H]2O[C@H](C)C[C@H](N(C)C)[C@H]2O)[C@](C)(O)C[C@@H](C)C(=O)[C@H](C)[C@@H](O)[C@]1(C)O [erythromycin] was tested, and the Resistance to antibiotics (15 μg) was “sensitive”.

In the case of Nc1ccc(S(=O)(=O)Nc2ncccn2)cc1 [sulfadiazine], the Resistance to antibiotics (300 units) is reported as “resistant”.

With CO[C@@H]1[C@@H](OC(N)=O)[C@@H](O)[C@H](Oc2ccc3c(O)c(NC(=O)c4ccc(O)c(CC=C(C)C)c4)c(=O)oc3c2C)OC1(C)C [novobiocin] the Resistance to antibiotics (30 μg) was “sensitive”.

In the case of CCn1cc(C(=O)O)c(=O)c2ccc(C)nc21 [nalidixic acid], the Resistance to antibiotics (30 μg) is reported as “resistant”.

In the case of CN[C@H](CC(C)C)C(=O)N[C@H]1C(=O)N[C@@H](CC(N)=O)C(=O)N[C@H]2C(=O)N[C@H]3C(=O)N[C@H](C(=O)N[C@H](C(=O)O)c4cc(O)cc(O)c4-c4cc3ccc4O)[C@H](O)c3ccc(c(Cl)c3)Oc3cc2cc(c3O[C@@H]2O[C@H](CO)[C@@H](O)[C@H](O)[C@H]2O[C@H]2C[C@](C)(N)[C@H](O)[C@H](C)O2)Oc2ccc(cc2Cl)[C@H]1O [vancomycin], the Resistance to antibiotics (30 μg) is reported as “resistant”.
